A short description of the data set: Human HepG2 cell viability assay in 384 well format. Type of data set: toxicity, cell-based. Also on record: dose 125 nL, time 70.5 hour; cytotoxicity at 70.5 h: concentration not given beside the values. Conditions: HepG2 cells, read-out: Inhibition.
`CC(C)CNC(=O)[C@H]1CCS(=O)(=O)[C@@H]2CN(Cc3cccnc3)C[C@H]12`: the cytotoxicity at 70.5 h is -4.4%.

For `Cc1cnc(N2CCc3ncnc(N4CCN(C)CC4)c3CC2)nc1`, the cytotoxicity at 70.5 h was -2.07%.

As for `Cc1noc(C)c1Cc1nc(N(C)C)no1`, the cytotoxicity at 70.5 h is -12.3%.

For `Cc1nn(C)c2c(N(C)Cc3ccco3)nc(C3CC3)nc12`, the cytotoxicity at 70.5 h was 15.5%.

Turning to `CCCc1nccn1CCn1cnc2ccsc2c1=O`, the cytotoxicity at 70.5 h was 1.1%.

With `COc1cc(-c2cc(OC)c(OC)c(OC)c2)ncn1`, the cytotoxicity at 70.5 h was -6.68%.

Turning to `COc1ccc(-n2c(COC(C)C)n[nH]c2=O)cc1`, the cytotoxicity at 70.5 h is -6.26%.

Turning to `CCc1n[nH]c(C(=O)N2CCN(c3ccc4ccccc4c3)CC2)c1C`, the cytotoxicity at 70.5 h is -6.66%.

`N#CC(Sc1nnnn1C1CCOCC1)C1CCCCC1` (stereo not given): the cytotoxicity at 70.5 h was -3.62%.

`Fc1ccc(-c2nc(CNC3CCc4ncnn4C3)cs2)cc1` (stereo not given): the cytotoxicity at 70.5 h was 0.825%.

Turning to `CCCN1CCN(C(=O)c2scnc2C)CC1`, the cytotoxicity at 70.5 h was -3.56%.

Regarding `CNS(=O)(=O)c1ccc(C(=O)N2CCCCC2c2ccc(C)cc2)o1` (stereo not given), the cytotoxicity at 70.5 h is -2.53%.

For the compound `CNC(=O)C1Cn2ccnc2C2(CCN(C(=O)CC3CCCC3)CC2)O1` (stereo not given), the cytotoxicity at 70.5 h was -1.06%.

In the case of `O=C(NC1CCOCC1)c1cccc(C2CCCNC2)c1` (stereo not given), the cytotoxicity at 70.5 h was -10.4%.

Regarding `O=C(NC1CC1)c1cc(C(F)(F)F)cc(C(=O)NC2CC2)n1`, the cytotoxicity at 70.5 h was 23%.

As for `CCc1nccn1CC(=O)N1C[C@H]2CC[C@@H]1CN(c1ncccn1)C2`, the cytotoxicity at 70.5 h is -0.942%.

As to `CCOc1ccc(CSC(C)c2nc(C)no2)nc1` (stereo not given), the cytotoxicity at 70.5 h was -6.64%.

Take `CCc1nnc(CNc2ccc(CC(=O)N3CCSCC3)cc2)o1`: the cytotoxicity at 70.5 h was found to be 13.8%.

Turning to `CN(CC1(CO)CCCC1)C(=O)c1cc(COc2ccccc2F)[nH]n1`, the cytotoxicity at 70.5 h is -6.26%.

Turning to `COc1ccc(NC(=O)N2CCC(c3noc(C)n3)CC2)cc1C`, the cytotoxicity at 70.5 h amounted to 1.97%.

For the compound `CCc1nccn1C1CCCN(C(=O)Cc2ccc(OC)c(F)c2)C1` (stereo not given), the cytotoxicity at 70.5 h came out at 4.08%.

Turning to `CCn1c(C)nnc1CN(C)C1CCN(CCS(=O)(=O)CC)C1` (stereo not given), the cytotoxicity at 70.5 h is -5.35%.

Consider `O=C(c1ccc2ccccc2c1)C1CCCN(C(=O)Cn2cncn2)C1` (stereo not given), for which the cytotoxicity at 70.5 h was -1.71%.

As for `CN1CCN(C(=O)c2cn(Cc3ccccc3)c3ncccc23)CC1`, the cytotoxicity at 70.5 h was -3.43%.

For `CCCc1nc(CNc2nc(C)nc3oc(C)nc23)cs1`, the cytotoxicity at 70.5 h was -6.15%.

Turning to `CCc1nc(C2CCCN2C(=O)C2=COCC2)no1` (stereo not given), the cytotoxicity at 70.5 h turned out to be 6.98%.

Take `CCN(CC)Cc1ccc(C(=O)NC2CCc3cc(Br)ccc32)o1` (stereo not given): the cytotoxicity at 70.5 h is -24.6%.

Turning to `CCN1CCN(C(=O)NCc2cccnc2-n2cccn2)CC1`, the cytotoxicity at 70.5 h amounted to 10.5%.

As for `Cc1nc2[nH]cnc(Nc3cc(C)n(C)n3)c-2n1`, the cytotoxicity at 70.5 h is -1.58%.

`COCc1ccc(C(=O)N2CCc3c(ncnc3N3CCOCC3)C2)o1`: the cytotoxicity at 70.5 h is -4.54%.

Take `CCN(C(=O)Cc1ccc(NCc2nccn2C)cc1)c1ccccc1`: the cytotoxicity at 70.5 h is -6.33%.

For `CC(C)n1c(C(=O)N2CCCC2)nc2c1CCN(C)C2`, the cytotoxicity at 70.5 h was -5.23%.

Regarding `CCc1nnc2n1CCN(C(=O)c1ccc3[nH]cnc3c1)C2`, the cytotoxicity at 70.5 h stood at 4.85%.

Turning to `Cc1ccccc1N1CCCN(C(=O)CCc2nncn2C)CC1`, the cytotoxicity at 70.5 h is -7.29%.

For the compound `O=C(c1cccn1Cc1cccs1)N1CCN(C(=O)C2CC2)CC1`, the cytotoxicity at 70.5 h was -20.1%.

As for `O=C(NCC(F)(F)F)C1CSCN1S(=O)(=O)c1cccc(F)c1` (stereo not given), the cytotoxicity at 70.5 h was -12%.

`Cc1csc(NC(=O)c2cnc(C3CCCN(C)C3)cn2)n1` (stereo not given): the cytotoxicity at 70.5 h is -8.15%.

Consider `CCCOC(=O)N1CCCC(c2nnc(CN3CCOCC3)n2C)C1` (stereo not given), for which the cytotoxicity at 70.5 h is 2.16%.

For `NC(=O)c1cncc(N2CCN(Cc3ccc(F)cc3Cl)CC2)n1`, the cytotoxicity at 70.5 h was -3.73%.

As to `CCOCc1cnc2n1CCN(C(=O)Cc1cccs1)C2C` (stereo not given), the cytotoxicity at 70.5 h was -7.5%.

Regarding `CN(C)Cc1nn(C)c2c1CN(C(=O)c1ccc[nH]1)C2`, the cytotoxicity at 70.5 h is -0.767%.

For `Cc1ccccc1CN1CCCN(C2CCOC2=O)CC1` (stereo not given), the cytotoxicity at 70.5 h was 3.44%.

As for `CN(C)c1nc(-c2ccncc2)nc2c1CCN(C(=O)[C@H](N)CO)C2`, the cytotoxicity at 70.5 h was -6.08%.

As to `Cc1cccc(NC2CCN(C(=O)Nc3ccncc3)CC2)n1`, the cytotoxicity at 70.5 h was found to be 24.2%.

Turning to `CCN1CCCC(O)(CNCc2ccccn2)C1` (stereo not given), the cytotoxicity at 70.5 h is -8.08%.

For the compound `COc1cc(CNc2ccc(Cl)cc2)ccc1OCC(=O)O`, the cytotoxicity at 70.5 h is -19.8%.

For `O=C(NCCn1cccc1)C(c1cccnc1)N1CCCC1` (stereo not given), the cytotoxicity at 70.5 h is -0.962%.

Regarding `O=c1[nH]ncc(NCCOc2ccc3c(c2)CCC3)c1Cl`, the cytotoxicity at 70.5 h is -11.7%.

Regarding `Cc1nc(C)c(CNC(=O)NC2CC(C)(C)OC2(C)C)s1` (stereo not given), the cytotoxicity at 70.5 h is -0.473%.

Regarding `O=C(NCc1ccco1)N1CCC(n2ccc(C(F)(F)F)n2)CC1`, the cytotoxicity at 70.5 h was -82.9%.

Consider `CCOCCCNC(=O)CCCC(=O)n1nc(C)c2ccccc21`, for which the cytotoxicity at 70.5 h was -3.2%.

Regarding `Cc1noc(C)c1CN(C)CC(=O)/N=c1\cc[nH]n1C(C)C1CC1` (stereo not given), the cytotoxicity at 70.5 h is 22.1%.

For `COc1ccccc1NC(=O)NCC(O)c1ccc(F)cc1F` (stereo not given), the cytotoxicity at 70.5 h is 17.3%.

Take `O=C(Cc1cccc(F)c1)N1CCn2cc(Cn3cccn3)nc2C1`: the cytotoxicity at 70.5 h is -10.7%.

Consider `CC(C)(C)OC(=O)NCC1CCN(C(=O)c2ccccc2O)CC1`, for which the cytotoxicity at 70.5 h is -7.62%.

Take `O=C(c1ccoc1)N1CCO[C@@H]2CNC[C@@H]21`: the cytotoxicity at 70.5 h is -1.42%.

`Cc1ccc(S(=O)(=O)N2C[C@@H]3C[C@@H](NC(=O)C(C)(C)C)[C@@H]3C2)cc1`: the cytotoxicity at 70.5 h was -16.5%.

Regarding `CCn1cnnc1C1CCN(C(=O)c2ccccc2OC)CC1`, the cytotoxicity at 70.5 h was -8.77%.

Turning to `Cc1nnc(CN(Cc2ccco2)Cc2cccc3c2OCO3)n1C`, the cytotoxicity at 70.5 h was -6.18%.

Consider `Cc1noc(OCCOc2cccc(C#N)c2)n1`, for which the cytotoxicity at 70.5 h is -3.56%.

For `CN(CC(=O)N1CCC(Oc2ccccc2)CC1)c1cnccn1`, the cytotoxicity at 70.5 h is -13.9%.

With `Cc1nc(N2CCCC2)nc2c1CN(C(=O)NC(C)C)CC2`, the cytotoxicity at 70.5 h was -3.45%.

For `O=C(NCCNc1cnccn1)C1CCN(C(=O)N2CCCC2)CC1`, the cytotoxicity at 70.5 h stood at 2.17%.

Turning to `CCOC(=O)C(C)Nc1cccc(COCc2ccco2)c1` (stereo not given), the cytotoxicity at 70.5 h is -1.34%.

As for `CCn1ccnc1CN1CCCN(C(=O)c2ccnn2C)CC1`, the cytotoxicity at 70.5 h is -3.84%.

As to `CCn1cnnc1CNC(=O)N1CCC(OCc2ccccc2)CC1`, the cytotoxicity at 70.5 h was -2.7%.

Consider `CCN(CC)c1ncc(Cl)c(C(=O)NC2CCc3nccn3C2)n1` (stereo not given), for which the cytotoxicity at 70.5 h is -13.5%.

Regarding `CN(Cc1cccnc1)C(CO)c1cccc(Br)c1` (stereo not given), the cytotoxicity at 70.5 h is -7.61%.

Take `Cc1ccc(N2CCCC(NCC(=O)NC3CCOCC3)C2)nn1` (stereo not given): the cytotoxicity at 70.5 h is -3.6%.

On to `COc1ccccc1C(=O)N1CCC(Oc2ccc(C#N)cn2)CC1`, for which the cytotoxicity at 70.5 h was -2.18%.

For the compound `COc1ncc(-c2cc(NC3CCCC3)nc3[nH]ccc23)c(OC)n1`, the cytotoxicity at 70.5 h was -12%.

Turning to `CC(C)CN(CC(C)C)Cn1ncc2cn(-c3ccccc3)nc2c1=O`, the cytotoxicity at 70.5 h was -2.25%.

Consider `CN(C)Cc1cncc2c1CCN(C1CCOCC1)C2`, for which the cytotoxicity at 70.5 h is -8.32%.

Take `C[C@]1(O)CCN(Cc2ncccc2F)C[C@@H]1Oc1ccccc1`: the cytotoxicity at 70.5 h was -6.62%.

Regarding `COc1ccc(OC)c(CN2CCc3nc4ccsc4c(=O)n3CC2)c1`, the cytotoxicity at 70.5 h is 38.7%.

Take `COc1cc(CNc2ccccc2Cl)ccc1OCC(=O)O`: the cytotoxicity at 70.5 h amounted to 19%.

For `COc1cccc(C(=O)N2C[C@H]3CC[C@@H]2CN(Cc2cscn2)C3)c1`, the cytotoxicity at 70.5 h was -23.3%.

Consider `CN(Cc1cc(Br)cn1C)C(=O)c1cc(Cl)ccn1`, for which the cytotoxicity at 70.5 h worked out at 30.9%.

Take `COc1c(F)cc(-c2cn(CCn3c(C)cc(C)nc3=O)nn2)cc1Cl`: the cytotoxicity at 70.5 h was -2.6%.

`COc1cc(NCc2ccc(Cl)cc2)c(-c2nn[nH]n2)cc1OC`: the cytotoxicity at 70.5 h was -0.792%.

On to `CCOC(=O)c1cccc(N2CCCC3(CCC(=O)N(C4CC4)C3)C2)n1` (stereo not given), for which the cytotoxicity at 70.5 h was -2.93%.

Consider `CCOc1cccc(NS(=O)(=O)c2cc(C)c(C(=O)O)s2)c1`, for which the cytotoxicity at 70.5 h amounted to 8.89%.

For the compound `Cn1nc(Cn2ccnc2)c2c1CN(c1nccs1)C2`, the cytotoxicity at 70.5 h is -5.95%.

Regarding `CCC(O)(CNCc1ccncc1)c1ccc(Br)cc1` (stereo not given), the cytotoxicity at 70.5 h worked out at 1.46%.

Regarding `COc1ccsc1C(=O)N1CCCC(n2nc(C)nc2C)C1` (stereo not given), the cytotoxicity at 70.5 h came to 3.22%.

With `O=S(=O)(NCCCN1CCCC1)c1cc(F)cc(F)c1`, the cytotoxicity at 70.5 h came to 27.2%.

Regarding `O=C(NC1CCNCC1)C1(N2CCCCC2)Cc2ccccc2C1`, the cytotoxicity at 70.5 h stood at 13.5%.

For `CC(C)(C)CC(=O)N1C[C@H]2CCN[C@H]2C1`, the cytotoxicity at 70.5 h is -2.71%.

Turning to `Cc1ccccc1S(=O)(=O)NC(=O)CSc1ccc2c(c1)OCCO2`, the cytotoxicity at 70.5 h is -4.74%.

As for `CS(=O)(=O)N1CCC(C(=O)N2CCC3(CC2)OCCCO3)CC1`, the cytotoxicity at 70.5 h amounted to 54.6%.

Consider `Cc1noc(C)c1CN(C)C(=O)C1(NS(C)(=O)=O)CCCCC1`, for which the cytotoxicity at 70.5 h is -0.856%.

For the compound `O=C(CCOc1ccccc1)N1CCC(Nc2cccnn2)CC1`, the cytotoxicity at 70.5 h was found to be 1.59%.

Consider `CCN1CCC2(C1)CN(S(=O)(=O)c1cn(C)cn1)C2`, for which the cytotoxicity at 70.5 h is -5.09%.

For `CCN(CCCNc1ncnc2cc(F)c(F)cc12)S(C)(=O)=O`, the cytotoxicity at 70.5 h was -1.36%.

Take `Cc1cc2cc(C(=O)N[C@@H]3CC[C@@H](N4CCNC(=O)C4)[C@@H]3O)ccc2o1`: the cytotoxicity at 70.5 h is -7.85%.

On to `CC(NC(=O)Cn1cc(-c2ccccc2)cn1)C1CC1` (stereo not given), for which the cytotoxicity at 70.5 h is -6.64%.

As to `O=C(NCCN1CCOCC1)c1ccn(COc2ccc(F)cc2)n1`, the cytotoxicity at 70.5 h is -5.85%.

`Cn1ccnc1C1c2nc[nH]c2CCN1Cc1cccnc1` (stereo not given): the cytotoxicity at 70.5 h is -5.94%.

As for `CCc1nnc(CN2CCCC(c3cc(C(N)=O)[nH]n3)C2)o1` (stereo not given), the cytotoxicity at 70.5 h was -6.39%.

As to `NS(=O)(=O)c1ccc(NCc2ccco2)c2ncccc12`, the cytotoxicity at 70.5 h turned out to be 8.34%.

The record behind these values is ChEMBL document CHEMBL3507680, “University of Dundee, Gates Library screen for HepG2 cell viability”.
